Laboratory results taken from US12521381B2, “Anticoccidial agent and method for using the same” (NIHON NOHYAKU CO., LTD., priority 2020, dated 2026).

System: chicken coccidium (Eimeria tenella)
Test: Evaluation test of growth inhibition on chicken coccidium (Eimeria tenella)
Format: cell-based
Details: 48 h, mammal cells infected with sporozoite of chicken coccidium, indirect immunofluorescence, read-out: EC50 (inhibition of growth of chicken coccidium to a mature schizont)
Experimental: Test Example 1: Evaluation Test of Growth Inhibition on Chicken Coccidium (Eimeria tenella) Each of the benzimidazole compounds represented by General Formula (1) or salts of the compounds according to the present invention was diluted with a regulating liquid to a predetermined concentration and placed in a microtiter plate. To the dilution in the plate, mammal cells infected with a sporozoite of chicken coccidium were incubated. Forty-eight hours later, the degree of inhibition on growth of chicken coccidium to a mature schizont was examined by an indirect immunofluorescence technique, and EC50 was determined by calculation.

## FC(F)(F)C(F)(F)COc1ccc(-c2nc3cc(Br)c(Br)cc3[nH]2)cn1 [Compound 11-5, 5,6-dibromo-2-(6-(2,2,3,3,3-pentafluoropropoxy)pyrid-3-yl)benzimidazole]
  EC50: ≤ 20 µM
